Data as given in patent US20220142958A1, “MEDICINAL COMPOSITION HAVING EXCELLENT STABILITY” (EA Pharma Co., Ltd., priority 2019, published 2022).

Key:
[1] = test system: SHPT patients on maintenance hemodialysis; assay: Phase I/II clinical trial, single administration; type: in vivo, human; conditions: for percentage decrease in the serum iPTH concentration: 66 hours after the administration
Description: Targeting SHPT patients on maintenance hemodialysis, pharmacokinetics, pharmacodynamics and safety upon single or repeated intravenous administration of Compound A1 were examined by conducting a double-blind test using a placebo as a control.
Single administration: Based on the clinically effective dose calculated in Reference Example 5, the doses were given at 0.025 mg, 0.05 mg, 0.1 mg, 0.2 mg, 0.4 mg, 0.6 mg, and 0.8 mg (7 steps). On the day of trial drug administration, the trial drug was intravenously administered as slow as possible within 60 seconds 2 to 4 hours following the end of dialysis. Here, the trial drug was administered by diluting a required dose taken from the Compound A1 vial formulation prepared as follows with sterilized water for injection, and filling a syringe with the resultant in accordance with the dose to be administered.
Each item was evaluated according to the predetermined evaluation schedule.
A vial formulation encapsulating 1 mg of Compound A1 in terms of a dehydrate, and sodium chloride, disodium hydrogen phosphate dodecahydrate, and sodium dihydrogen phosphate dihydrate as additives in 10 ml of sterilized water for injection

serum Ca concentration = assay: Serum Ca concentration in bilaterally nephrectomized rats after single intravenous administration; type: in vivo, rat
Excerpt: After quarantine and acclimatization periods of 6 days, fifty-one rats (Crl: CD (SD), male) aged 7 weeks were fed a 100% sucrose diet ad libitum from four days before the surgery. On the day of the surgery, skin incisions were made on the back at the sites of the right and left kidneys under isoflurane anesthesia and the renal capsules were removed to ligate the renal arteries and veins and the ureters using threads before removing the right and left kidneys. A penicillin solution was given upon suturing, and 5 mL of physiological saline was intraperitoneally administered before returning the rats into the breeding cages.
On the day of administering the test substance, for example, a day after the bilaterally nephrectomy, approximately 100 μL of blood was collected from the tail vein without anesthesia using a capillary tube, which was centrifuged in a high speed refrigerated microcentrifuge (10,000 rpm, 5 min, 4° C.) to separate the serum. Thereafter, the serum Ca concentration was measured with a dri-chemanalyzer (model number: FUJI DRI-CHEM 7000, manufacturer: FUJI FILM Medical Co., Ltd.) to select individuals with a serum Ca concentration of 8.0 mg/dL or more and less than 14.0 mg/dL.
On a day after the bilaterally nephrectomy, the given doses were calculated based on the weight of the selected animals on that day. Group 1 was given a medium (physiological saline), Groups 2, 3 and 4 were given the Compound A1 solution (0.3, 3 and 30 mg/mL, respectively), and Groups 5, 6, 7 and 8 (5 rats per group) were given the comparative compound (0.3, 1, 3 and 10 mg/mL, respectively), each given a single dose of 1 ml/kg from the tail vein. Prior to the administration (0 hours), and 24 and 48 hours after the administration, approximately 300 μL of blood was collected without anesthesia from the tail vein using capillary tubes for obtaining the serum. The blood for obtaining the serum was left to stand at room temperature, and centrifuged in a high speed refrigerated microcentrifuge (10,000 rpm, 5 min, 4° C.) within a period of 30 minutes to 2 hours after the blood collection to collect the serum.
Thereafter, the serum Ca was analyzed with COBAS analyzer (Model number: COBAS INTEGRA 400 plus, manufacturer: Roche Diagnostics K.K.), and the remaining serum was stored in an ultra-low freezer (temperature set to −80±15° C.) until the day of iPTH measurement. On the day of iPTH measurement, the serum was melted at room temperature for measurement.
A 30 mg/ml Compound A1 solution ([…] of Compound A1 dissolved in 10 ml of physiological saline) was diluted with physiological saline to prepare 0.3 mg/ml and […] Compound A1 solutions.
149 mg of etelcalcetide (Ac-c(C) arrrar-NH2) TFA salt (WO 2011/014707 A) was prepared to have pH of 6 to 8 with 7 ml of physiological saline and a 0.5N aqueous NaOH solution, and physiological saline was further added thereto to make 10 ml. The prepared 10 mg/ml comparative compound solution was diluted with physiological saline to obtain 0.3 mg/ml and 1 mg/ml comparative compound solutions.

[2] = Example 1B: residual ratio of Compound A1 at 2 concentrations stored at 5° C.; type: physicochemical
Description: According to Table 3 below, Compound A1 was dissolved in each of the buffer solutions at 2 concentrations. Each of these solutions was dispensed into a glass vial and stored at 5° C. After the storage, a residual ratio of Compound A1 was calculated according to a test method described below.
Test method: In the solution after the storage, the residual ratio was analyzed according to a normal method using a liquid chromatography apparatus Prominence (manufactured by Shimadzu Corporation) and an ultraviolet absorptiometer (measurement wavelength: 254 nm, Prominence (manufactured by Shimadzu Corporation)). At this time, SUMIPAX ODS (3 mm×150 mm, 5 μm, manufactured by SCAS) was used as a column.
The residual ratio (%) of Compound A1 during each storage period at 5° C. was calculated as follows.
Residual ratio (%) of Compound A1 during each storage period=peak area of Compound A1 in sample solution/sum of peak area of sample solution×100

male beagles = assay: Emetogenicity of Compound A1 in dogs; type: in vivo, dog; conditions: for Number of vomiting cases/Number of administration: Intravenous
Description: A crossover trial was conducted with male beagles (Nosan Beagle, 14 to 87-month-old, weight: 10.2 kg to 15.8 kg). The Compound A1 solutions used in Reference Example 2 were given at 0.3, 1 and 10 mg/kg by bolus administration (0.5 mL/kg, 1 mL/sec) to 3 to 6 dogs per dose to confirm the manifestation of vomiting immediately after the administration. Administration was conducted once or twice a week with an interval of 2 days or longer. Administration was conducted prior to feeding. Symptoms prior to, immediately after, and 15 and 30 minutes after the administration were observed.

SMILES: Cc1c(Cl)cc(S(=O)(=O)[O-])cc1NC(=O)NC[C@H](N)C(=O)O.[Na+] [Compound A1, sodium 3-{[(2S)-2-amino-2-carboxyethyl]carbamoylamino}-5-chloro-4-methylbenzenesulfonate]
- percentage decrease in the serum iPTH concentration ([1]; 0.025 mg dose group): 27%
- percentage decrease in the serum iPTH concentration ([1]; 0.05 mg dose group): 48%
- percentage decrease in the serum iPTH concentration ([1]; 0.1 mg dose group): 44%
- percentage decrease in the serum iPTH concentration ([1]; 0.2 mg dose group): 57%
- percentage decrease in the serum iPTH concentration ([1]; 0.4 mg dose group): 78%
- percentage decrease in the serum iPTH concentration ([1]; 0.6 mg dose group): 69%
- percentage decrease in the serum iPTH concentration ([1]; 0.8 mg dose group): 66%
- time the serum iPTH lowering effect continued after the administration ([1]; single administration, just before the dialysis): up to 66 hours
- vomiting ([1]; single administration, observed in the 0.4 mg and higher dose groups): non-severe and mild
- nausea ([1]; single administration, observed in the 0.6 mg and higher dose groups): non-severe and mild
- Cmax and AUC in plasma ([1]; single i.v. 0.025 to 0.8 mg, relation to dose): increased with the increase in the given dose
- mean serum Ca concentration (serum Ca concentration; 0.3 mg/kg single i.v., 24 hours after the administration): 9.07 mg/dL
- mean serum Ca concentration (serum Ca concentration; 0.3 mg/kg single i.v., 48 hours after the administration): 10.24 mg/dL
- mean serum Ca concentration (serum Ca concentration; 3 mg/kg single i.v., 24 hours after the administration): 7.97 mg/dL
- mean serum Ca concentration (serum Ca concentration; 3 mg/kg single i.v., 48 hours after the administration): 8.55 mg/dL
- mean serum Ca concentration (serum Ca concentration; 30 mg/kg single i.v., 24 hours after the administration): 7.99 mg/dL
- mean serum Ca concentration (serum Ca concentration; 30 mg/kg single i.v., 48 hours after the administration): 8.14 mg/dL
- lower limit value of the serum Ca concentration (simulated) (serum Ca concentration; logistic curve fitting, 48 hours after the administration vs given dose): 8.072 mg/dL
- Residual ratio (%) ([2]; 0.1 mg/mL, pH 1.1, 5° C., 23 hours): 100%
- Residual ratio (%) ([2]; 0.1 mg/mL, pH 1.1, 5° C., 141 hours): 100%
- Residual ratio (%) ([2]; 0.1 mg/mL, pH 1.1, 5° C., 570 hours): 100%
- Residual ratio (%) ([2]; 0.1 mg/mL, pH 7.0, 5° C., 23 hours): 100%
- Residual ratio (%) ([2]; 0.1 mg/mL, pH 7.0, 5° C., 141 hours): 100%
- Residual ratio (%) ([2]; 0.1 mg/mL, pH 7.0, 5° C., 570 hours): 100%
- Residual ratio (%) ([2]; 10 mg/mL, pH 1.1, 5° C., 23 hours): 100%
- Residual ratio (%) ([2]; 10 mg/mL, pH 1.1, 5° C., 141 hours): 100%
- Residual ratio (%) ([2]; 10 mg/mL, pH 1.1, 5° C., 570 hours): 100%
- Residual ratio (%) ([2]; 10 mg/mL, pH 7.0, 5° C., 23 hours): 100%
- Residual ratio (%) ([2]; 10 mg/mL, pH 7.0, 5° C., 141 hours): 100%
- Residual ratio (%) ([2]; 10 mg/mL, pH 7.0, 5° C., 570 hours): 100%
- stability of the formulation ([2]; pH of 1.1 and pH of 7.0, 5° C., regardless of the concentration): stable
- Number of vomiting cases/Number of administration (male beagles; 0.3 mg/kg): 0/3
- Number of vomiting cases/Number of administration (male beagles; 1 mg/kg): 0/3
- Number of vomiting cases/Number of administration (male beagles; 10 mg/kg): 1/6
- therapeutic margin with respect to vomiting (dog C0 vs human C0) (male beagles; dog 1 mg/kg vs human 0.1 mg/man): ≥ 430 times
